# Reference: patent publication US20260035407A1, “CYCLIC PEPTIDE DERIVATIVE, METHOD FOR PRODUCING SAME, AND COMPOSITION” (priority 2022, published 2026)
# System: Mouse astrocytes
# Assay: Cell proliferation assay (BrdU method) on mouse astrocytes
# Assay type: cell-based
# Settings: Astrocyte; mouse astrocytes, compound concentration 50 μM, 24 hours treatment in serum-free DMEM, BrdU; read-out: Cell proliferation activity, proliferative activity (%)
# Method: A screening test regarding the mouse astrocyte proliferation action of the compound synthesized in the Example described above was performed.
# • Cells: Mouse astrocytes • Manufacturer: Cosmo Bio • Catalog No.: AST02C • Medium: 10% FBS, 1% PS, DMEM
# • Cell proliferation assay (BrdU method)
# Mouse astrocytes were put into sleep in a T-75 flask using a medium (10% FBS, 1% Penicillin-Streptomycin, DMEM (Low Glucose)) and cultured in a CO2 incubator (37° C., 5% CO2, ambient O2, wet, and the same applies below) for 4 days. Medium exchange was performed on the second day after sleep onset. The cells were detached using Trypsin-EDTA (0.05%) and phenol red, neutralized with a medium, and centrifuged (180×g, RT, 5 minutes), then seeded in a 96-well plate at 20,000 cells/0.1 mL/well using a medium, and cultured in a CO2 incubator. On the next day, the medium was replaced with serum-free DMEM (Low Glucose), and the cells were further cultured in a CO2 incubator for 24 hours.
# Next, the medium was replaced with serum-free DMEM (Low Glucose) to which the compound was added or with compound-free-serum-free DMEM (Low Glucose), and the cells were further cultured in a CO2 incubator for 24 hours to treat the cells with the compound.
# After completion of the compound treatment, cell proliferation assay was performed using Cell Proliferation ELISA, BrdU (colometric) (MERCK, Cat. No. 11647229001). 10 μL of a BrdU labeling solution (prepared by adding a BrdU-labeled reagent to a test substance-treated medium in an amount of 1/100 vol) was added thereto, and the mixture was cultured in a CO2 incubator for 4 hours. Next, after removing the medium, FixDenat was added at 200 μL/well and incubated at room temperature for 30 minutes. Next, FixDenat was removed and a POD-labeled anti-BrdU antibody reaction solution (prepared by adding 1/100 vol of a POD-labeled anti-BrdU antibody stock solution to an antibody diluent) was added at 100 μL/well, and the cells were incubated at room temperature for 2 hours. Next, antibodies were removed, and the wells were washed 3 times with 200 μL/well of a washing liquid. After washing, 100 μL/well of a substrate solution was added, incubation was performed at room temperature for 30 minutes, and an absorbance (370 nm, control wavelength 492 nm) was measured with a plate reader. A difference between the test substance-free group and the test substance-treated group was verified by Dunnett's test in which the test substance-free group was used as a control. The significance level was 5% for both groups.
row,SMILES,activity at 50 µM
1,CN[C@H]1Cc2ccc(O)c(c2)OC[C@@H](C(=O)N[C@@H](CCC(=O)O)C(=O)O)NC(=O)[C@H](C(C)C)NC1=O [Compound 5],90 to 110%

# Same assay, conditions: Astrocyte; mouse astrocytes, compound concentration 100 μM, 24 hours treatment in serum-free DMEM, BrdU; read-out: Cell proliferation activity, proliferative activity (%)
row,SMILES,activity at 100 µM
1,CC(C)[C@@H]1NC(=O)[C@@H](N)Cc2ccc(O)c(c2)OC[C@@H](C(=O)N[C@@H](CCC(=O)O)C(=O)O)NC1=O [Compound 8],90 to 110%

# Same assay, conditions: Astrocyte; mouse astrocytes, compound concentration 200 μM, 24 hours treatment in serum-free DMEM, BrdU; read-out: Cell proliferation activity, proliferative activity (%)
row,SMILES,activity at 200 µM
1,CN[C@H]1Cc2ccc(O)c(c2)OC[C@@H](C(=O)N[C@@H](CCC(=O)O)C(=O)O)NC(=O)CNC1=O [Compound 3],90 to 110%
2,CN[C@H]1Cc2ccc(O)c(c2)OC[C@@H](C(=O)N[C@@H](CC(=O)O)C(=O)O)NC(=O)CNC1=O [Compound 11],110 to 130%

# Same assay, conditions: Astrocyte; mouse astrocytes, compound concentration 400 μM, 24 hours treatment in serum-free DMEM, BrdU; read-out: Cell proliferation activity, proliferative activity (%)
row,SMILES,activity at 400 µM
1,CN[C@H]1Cc2ccc(O)c(c2)O[C@@H](C)[C@@H](C(=O)N[C@@H](CCC(=O)O)C(=O)O)NC(=O)CNC1=O [Compound 4],90 to 110%
2,N[C@H]1Cc2ccc(O)c(c2)OC[C@@H](C(=O)N[C@@H](CCC(=O)O)C(=O)O)NC(=O)CNC1=O [Compound 7],90 to 110%
3,CN[C@H]1Cc2ccc(O)c(c2)O[C@@H](C)[C@@H](C(=O)N[C@@H](CC(=O)O)C(=O)O)NC(=O)CNC1=O [Compound 12],110 to 130%

# Same assay, conditions: Mus musculus, Astrocyte, 24 h, read-out: Cell proliferation activity, proliferative activity (%)
SMILES,activity at 25 µM,activity at 200 µM,activity at 100 µM,activity at 50 µM,activity at 1000 µM
CC[C@@]1(C)Oc2cc(ccc2O)C[C@H](NC)C(=O)N[C@@H](C(C)C)C(=O)N[C@@H]1C(=O)N[C@@H](CCC(=O)O)C(=O)O [Compound 1],> 150%,,,,
CC[C@@]1(C)Oc2cc(ccc2O)C[C@H](NC)C(=O)NCC(=O)N[C@@H]1C(=O)N[C@@H](CCC(=O)O)C(=O)O [Compound 2],110 to 130%,,,,
CC[C@@]1(C)Oc2cc(ccc2O)C[C@H](N)C(=O)N[C@@H](C(C)C)C(=O)N[C@@H]1C(=O)N[C@@H](CCC(=O)O)C(=O)O [Compound 6],,110 to 130%,,,
CC[C@@]1(C)Oc2cc(ccc2O)C[C@H](NC)C(=O)N[C@@H](C(C)C)C(=O)N[C@@H]1C(=O)N[C@@H](CC(=O)O)C(=O)O [Compound 9],,> 150%,,,
CC[C@@]1(C)Oc2cc(ccc2O)C[C@H](NC)C(=O)NCC(=O)N[C@@H]1C(=O)N[C@@H](CC(=O)O)C(=O)O [Compound 10],,,110 to 130%,,
CC[C@@]1(C)Oc2cccc(c2)C[C@H](N)C(=O)NCC(=O)N[C@@H]1C(=O)N[C@@H](CCC(=O)O)C(=O)O [Compound 13],,110 to 130%,,,
CC[C@@]1(C)Oc2cccc(c2)C[C@H](NC)C(=O)N[C@@H](C(C)C)C(=O)N[C@@H]1C(=O)N[C@@H](CCC(=O)O)C(=O)O [Compound 14],,110 to 130%,,,
CC[C@@]1(C)Oc2cc(ccc2O)C[C@H](N)C(=O)N[C@@H](C(C)C)C(=O)N[C@@H]1C(=O)N[C@@H](CC(=O)O)C(=O)O [Compound 15],,90 to 110%,,,
CN[C@H]1Cc2ccc(O)c(c2)OC(C)(C)[C@@H](C(=O)N[C@@H](CCC(=O)O)C(=O)O)NC(=O)[C@H](C(C)C)NC1=O [Compound 16],,130 to 150%,,,
CN[C@H]1Cc2ccc(O)c(c2)OC(C)(C)[C@@H](C(=O)N[C@@H](CC(=O)O)C(=O)O)NC(=O)[C@H](C(C)C)NC1=O [Compound 17],90 to 110%,,,,
CC[C@@]1(C)Oc2cc(ccc2O)C[C@H](NC)C(=O)N[C@@H](C(C)C)C(=O)N[C@@H]1C(=O)NCCCC(=O)O [Compound 18],,,,90 to 110%,
CC(C)[C@@H]1NC(=O)[C@@H](N)Cc2ccc(O)c(c2)OC(C)(C)[C@@H](C(=O)N[C@@H](CCC(=O)O)C(=O)O)NC1=O [Compound 19],,110 to 130%,,,
CC[C@@]1(C)Oc2cc(ccc2O)C[C@H](NC)C(=O)N[C@@H](C(C)C)C(=O)N[C@@H]1C(=O)N[C@H](CCC(=O)O)C(=O)O [Compound 20],,90 to 110%,,,
CC[C@@]1(C)Oc2cc(ccc2O)C[C@H](NC)C(=O)N[C@@H](C(C)C)C(=O)N[C@@H]1C(=O)N[C@H](CC(=O)O)C(=O)O [Compound 21],,,,90 to 110%,
CC[C@@]1(C)Nc2cc(ccc2O)C[C@H](NC)C(=O)N[C@@H](C(C)C)C(=O)N[C@@H]1C(=O)N[C@@H](CCC(=O)O)C(=O)O [Compound 22],,90 to 110%,,,
CC[C@@]1(C)Oc2cc(ccc2O)C[C@H](N(C)C)C(=O)N[C@@H](C(C)C)C(=O)N[C@@H]1C(=O)N[C@@H](CCC(=O)O)C(=O)O [Compound 23],,,,,130 to 150%
CC[C@@]1(C)Oc2cc(ccc2O)C[C@H](NC)C(=O)N[C@@H](Cc2ccccc2)C(=O)N[C@@H]1C(=O)N[C@@H](CCC(=O)O)C(=O)O [Compound 24],,130 to 150%,,,

SMILES,activity at 25 µM,activity at 200 µM,activity at 100 µM,activity at 50 µM,activity at 1000 µM
CC[C@@]1(C)Oc2cc(ccc2O)C[C@H](NC)C(=O)N[C@@H](CCC(=O)O)C(=O)N[C@@H]1C(=O)N[C@@H](CCC(=O)O)C(=O)O [Compound 25],,,,90 to 110%,
CC[C@@]1(C)Oc2cc(ccc2O)C[C@H](NC)C(=O)N[C@@H](CO)C(=O)N[C@@H]1C(=O)N[C@@H](CCC(=O)O)C(=O)O [Compound 27],,90 to 110%,,,
CC[C@@]1(C)Oc2cc(ccc2O)C[C@H](NC)C(=O)N[C@@H]([C@@H](C)O)C(=O)N[C@@H]1C(=O)N[C@@H](CCC(=O)O)C(=O)O [Compound 28],,,,110 to 130%,
CC[C@@]1(C)Oc2cc(ccc2O)C[C@H](NC)C(=O)N[C@@H](Cc2ccc(O)cc2)C(=O)N[C@@H]1C(=O)N[C@@H](CCC(=O)O)C(=O)O [Compound 29],,90 to 110%,,,
CC[C@@]1(C)Oc2cc(ccc2O)C[C@H](NC)C(=O)N[C@@H](CCCNC(=N)N)C(=O)N[C@@H]1C(=O)N[C@@H](CCC(=O)O)C(=O)O [Compound 31],,,110 to 130%,,
CC[C@@]1(C)Oc2cc(ccc2OC)C[C@H](NC)C(=O)N[C@@H](C(C)C)C(=O)N[C@@H]1C(=O)N[C@@H](CCC(=O)O)C(=O)O [Compound 37],,,110 to 130%,,
CC[C@@]1(C)Oc2cc(ccc2O)C[C@H](N(C)C)C(=O)N[C@@H](C(C)C)C(=O)N[C@@H]1C(=O)N[C@@H](CC(=O)O)C(=O)O [Compound 39],,,130 to 150%,,
CC[C@@]1(C)Oc2cc(ccc2O)C[C@H](N(C)C)C(=O)N[C@@H](CCC(=O)O)C(=O)N[C@@H]1C(=O)N[C@@H](CCC(=O)O)C(=O)O [Compound 40],,,,90 to 110%,
CC[C@@]1(C)Oc2cc(ccc2O)C[C@H](NC)C(=O)N(C)[C@@H](C(C)C)C(=O)N[C@@H]1C(=O)N[C@@H](CC(=O)O)C(=O)O [Compound 41],,,,90 to 110%,
CC[C@@]1(C)Oc2cc(ccc2O)C[C@H](NC)C(=O)N(C)[C@@H](C(C)C)C(=O)N[C@@H]1C(=O)N[C@@H](CCC(=O)O)C(=O)O [Compound 42],,130 to 150%,,,
CC[C@@]1(C)Oc2cc(ccc2O)C[C@H](NC)C(=O)N[C@@H](C(C)C)C(=O)N(C)[C@@H]1C(=O)N[C@@H](CCC(=O)O)C(=O)O [Compound 43],,,110 to 130%,,
CC[C@@]1(C)Oc2cc(ccc2O)C[C@H](NC)C(=O)N[C@@H](C(C)C)C(=O)N(C)[C@@H]1C(=O)N[C@@H](CC(=O)O)C(=O)O [Compound 44],,110 to 130%,,,
CC[C@@]1(C)Oc2cc(ccc2O)C[C@H](NC)C(=O)N[C@H](C(C)C)C(=O)N[C@@H]1C(=O)N[C@@H](CC(=O)O)C(=O)O [Compound 45],,,,90 to 110%,
CC[C@@]1(C)Oc2cc(ccc2O)C[C@H](NC)C(=O)N[C@@H](C(C)C)C(=O)N[C@@H]1C(=O)N(C)[C@@H](CC(=O)O)C(=O)O [Compound 47],,130 to 150%,,,
CC[C@@]1(C)Oc2cc(ccc2O)C[C@H](NC)C(=O)N[C@@H](C)C(=O)N[C@@H]1C(=O)N[C@@H](CCC(=O)O)C(=O)O [Compound 48],,,110 to 130%,,
CC[C@@]1(C)Oc2cc(ccc2O)C[C@H](NC)C(=O)N[C@@H](CC(C)C)C(=O)N[C@@H]1C(=O)N[C@@H](CCC(=O)O)C(=O)O [Compound 49],,110 to 130%,,,
CC[C@H](C)[C@@H]1NC(=O)[C@@H](NC)Cc2ccc(O)c(c2)O[C@](C)(CC)[C@@H](C(=O)N[C@@H](CCC(=O)O)C(=O)O)NC1=O [Compound 50],,,,130 to 150%,
